What was measured:
[1] = system: IL-4 stimulated expression of CD23 in human Ramos B cells (JAK-1 and JAK-3); experiment: Assay for Ramos B-Cell Line Stimulated with IL-4 (CD23 upregulation, FACS); assay type: cell-based; conditions: Homo sapiens, Ramos, Ramos B cells stimulated with IL-4, CD23 expression by FACS; read-out: IC50, Example 41
In short: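 Steps: Ramos B cells are suspended in RPMI with 5% serum, exposed to compound for 1 h at 37 °C, stimulated with IL-4 (final 50 units/mL) for 20-24 h, stained for CD23 and analysed by flow cytometry. IC50 is calculated.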

[2] = system: up-regulation of ICAM-1 (CD54) by IFNγ in U937 human monocytic cells; experiment: U937 IFNγ ICAM1 FACS Assay; assay type: cell-based; conditions: Homo sapiens, U-937, U937 cells stimulated with IFNγ, ICAM-1 expression by FACS; read-out: IC50, Example 44
From the text: The activity of the compounds of the invention may additionally be characterized by assaying the effect of the 2,4-substituted pyrimidinediamine compounds described herein on A549 lung epithelial cells and U937 cells. A549 lung epithelial cells and U937 cells up-regulate ICAM-1 (CD54) surface expression in response to a variety of different stimuli. Therefore, using ICAM-1 expression as readout, test compound effects on different signaling pathways can be assessed in the same cell type. Stimulation with IL-1β through the IL-1β receptor activates the TRAF6/NFκB pathway resulting in up-regulation of ICAM-1. IFNγ induces ICAM-1 up-regulation through activation of the JAK1/JAK2 pathway. The up-regulation of ICAM-1 can be quantified by flow cytometry across a compound dose curve and EC50, values are calculated.
U937 human monocytic cells up-regulate ICAM-1 (CD54) surface expression in response to a variety of different stimuli. Therefore, using ICAM-1 expression as readout, compound effects on different signaling pathways can be assessed in the same cell type. IFNγ up-regulates ICAM-1 through activation of the JAK/Stat pathway. In this example, the up-regulation of ICAM-1 by IFNγ was assessed.
The U937 human monocytic cell line was obtained from ATCC of Rockville Maryland, catalog number CRL-1593.2, and cultured in RPM1-1640 medium containing 10% (v/v) FCS. U937 cells were grown in 10% RPMI. The cells were then plated at a concentration of 100,000 cells per 160 μL in 96 well flat bottom plates. […] Then 4 μL of test compound was transferred to 76 μL of 10% RPMI resulting in a 10× solution (100 μM test compound, 5% DMSO). For control wells, 4 μL of DMSO was diluted into 76 μL 10% RPMI.
The assay was performed in duplicate with 8 points (8 3-fold dilution concentrations from […]) and with 4 wells of DMSO only (control wells) under stimulated conditions and 4 wells of DMSO only under unstimulated conditions.
The diluted compound plate was mixed 2× using a multimek (Beckman Coulter of Brea, California) and then 20 μL of the diluted compounds was transferred to the 96 well plate containing 160 μL of cells, which were then mixed again twice at low speeds. The cells and compounds were then pre-incubated for 30 minutes at 37° C. with 5% CO2.
The 10× stimulation mix was made by preparing a 100 ng/mL solution of human IFNγ in 10% RPMI. […] The cells were kept under conditions for stimulation for 18-24 hours at 37° C. with 5% CO2.
The cells were transferred to a 96 well round bottom plate for staining and then kept on ice for the duration of the staining procedure. Cells were spun down at 1000 rpm for 5 minutes at 4° C., following which the supernatant was removed. Following removal of the supernatant, 1 μL APC conjugated mouse anti-human ICAM-1 antibody was added per 100 μL FACS buffer. The cells were then incubated on ice in the dark for 30 minutes. Following incubation, […] of FACS buffer was added and the cells were centrifuged at 1000 rpm for 5 minutes at 4° C., following which the supernatant was removed. After removal of the supernatant, 200 μL of FACS buffer was added and the cells were resuspended. After suspension, the cells were centrifuged at 1000 rpm for 5 min at 4° C. Supernatant was then removed prior to resuspension of the cells in 150 μL FACS buffer.
Detection was performed using a BD LSR I System Flow Cytometer, purchased from BD Biosciences of San Jose, California The live cells were gated for live scatter and the geometric mean of ICAM-APC was measured (Becton-Dickinson CellQuest software version 3.3, Franklin Lakes, NJ). Both % live cells and ICAM-1 expression was analyzed. The assays for the test compounds were carried out in parallel with a control compound of known activity.

Row | IC50 [1] [nM] | IC50 [2] [nM] | SMILES
1 | 44.8 | 245 | Cc1cnc(Nc2cccc(S(N)(=O)=O)c2)nc1Nc1ccc2c(c1)N(C)C(=O)CS2 [VII-35, N2-(3-Aminosulphonylphenyl)-5-methyl-N4-(4-methyl-3-oxo-benzo[1,4]thiazin-6-yl)-2,4-pyrimidinediamine]
2 | 129 |  | NS(=O)(=O)c1ccc(Nc2ncc(F)c(Nc3ccc(CCCO)cc3)n2)cc1 [VI-85, N2-(4-Aminosulfonylphenyl)-5-fluoro-N4-[4-(3-hydroxypropyl)phenyl]-2,4-pyrimidinediamine]
3 | 153 | 487 | NS(=O)(=O)c1cccc(Nc2ncc(F)c(Nc3ccc(CCCO)cc3)n2)c1 [VI-86, N2-(3-Aminosulfonylphenyl)-5-fluoro-N4-[4-(3-hydroxypropyl)phenyl]-2,4-pyrimidinediamine]
4 | 107 | 2060 | Cc1cnc(Nc2cccc(S(N)(=O)=O)c2)nc1Nc1ccc2c(c1)NC(=O)CO2 [VII-32, N2-(3-Aminosulphonylphenyl)-5-methyl-N4-(3-oxo-benz[1,4]oxazin-6-yl)-2,4-pyrimidinediamine]
5 | 295 | 64600 | NC(=O)c1cc2cc(Nc3nc(Nc4cccc(S(N)(=O)=O)c4)ncc3F)ccc2o1 [VII-54, N2-(3-Aminosulfonylphenyl)-N4-(2-aminocarbonylbenzofurane-5-yl)-5-fluoro-2,4-pyrimidinediamine]
6 | 188 | 3040 | N#CCN1C(=O)CSc2ccc(Nc3nc(Nc4cccc(S(N)(=O)=O)c4)ncc3F)cc21 [Compound V-12, N2-(3-Aminosulphonylphenyl)-5-fluoro-N4-(3-oxo-4-cyanomethyl-benzo[1,4]thiazin-6-yl)-2,4-pyrimidinediamine]
7 | 83.6 | 5460 | NS(=O)(=O)c1cccc(Nc2ncc(F)c(Nc3ccc(Cl)c(Cl)c3)n2)c1 [VI-110, N2-(3-Aminosulfonylphenyl)-N4-(3,4-dichlorophenyl)-5-fluoro-2,4-pyrimidinediamine]
8 | 268 | 2100 | CNC(=O)OCc1cccc(Nc2nc(Nc3ccc(C)c(S(N)(=O)=O)c3)ncc2F)c1 [VI-49, N2-(3-Aminosulfonyl-4-methylphenyl)-5-fluoro-N4-[3-(methylaminocarbonyloxymethyl)phenyl]-2,4-pyrimidinediamine]
9 | 94.6 | 3850 | C#CCOC(=O)NCc1ccc(Nc2nc(Nc3cccc(S(N)(=O)=O)c3)ncc2F)cc1 [VI-74, N2-(3-Aminosulfonylphenyl)-5-fluoro-N4-{4-[(prop-2-ynyloxy)carbonylaminomethyl]phenyl}-2,4-pyrimidinediamine]
10 | 125 | 7280 | Cc1cnc(Nc2ccc(S(N)(=O)=O)cc2)nc1Nc1ccc2c(c1)NC(=O)CO2 [VII-31, N2-(4-Aminosulphonylphenyl)-5-methyl-N4-(3-oxo-benz[1,4]oxazin-6-yl)-2,4-pyrimidinediamine]
11 | 80 | 705 | Cc1ccc(Nc2ncc(F)c(Nc3cccc(-c4cnco4)c3)n2)cc1S(N)(=O)=O [IV-2, N2-(3-Aminosulfonyl-4-methylphenyl)-5-fluoro-N4-[3-(1,3-oxazol-5-yl)phenyl]-2,4-pyrimidinediamine]
12 | 70.6 | 657 | C#CCOc1ccc(Nc2nc(Nc3ccc(N4CCN(C)CC4)c(S(N)(=O)=O)c3)ncc2F)cc1 [VI-70, N2-[3-Aminosulfonyl-4-(1-methylpiperazin-4-yl)phenyl]-5-fluoro-N4-[4-(prop-2-ynyloxy)phenyl]-2,4-pyrimidinediamine]
13 | 89.3 | 1130 | C#CCn1ccc2cc(Nc3nc(Nc4ccc(C)c(S(N)(=O)=O)c4)ncc3F)ccc21 [IX-1, N2-(3-Aminosulfonyl-4-methylphenyl)-5-fluoro-N4-[1-(propyn-3-yl)indol-5-yl]-2,4-pyrimidinediamine]
14 | 147 | 1620 | C=Cc1ccc(Nc2nc(Nc3ccc(C)c(S(N)(=O)=O)c3)ncc2F)cc1 [VI-54, N2-(3-Aminosulfonyl-4-methylphenyl)-5-fluoro-N4-(4-vinylphenyl)-2,4-pyrimidinediamine]
15 | 21.9 | 572 | N#CCN1C(=O)COc2ccc(Nc3nc(Nc4ccc(S(N)(=O)=O)cc4)ncc3F)cc21 [Compound V-6, N2-(4-Aminosulphonylphenyl)-5-fluoro-N4-(3-oxo-4-cyanomethyl-benz[1,4]oxazin-6-yl]-2,4-pyrimidinediamine]
16 | 84.8 | 1180 | Cc1ccc2cc(Nc3nc(Nc4cccc(S(N)(=O)=O)c4)ncc3F)ccc2n1 [VII-72, N2-(3-Aminosulfonylphenyl)-5-fluoro-N4-(2-methylquinolin-6-yl)-2,4-pyrimidinediamine]
17 | 97.3 | 3480 | N#CCc1c[nH]c2cc(Nc3nc(Nc4cccc(S(N)(=O)=O)c4)ncc3F)ccc12 [IX-12, N2-(3-Aminosulfonylphenyl)-N4-(3-cyanomethyl-1H-indol-6-yl)-5-fluoro-2,4-pyrimidinediamine]
18 | 257 | 6060 | Cc1cc(Nc2ncc(F)c(Nc3ccc(OC(F)(F)F)c(Cl)c3)n2)cc(S(N)(=O)=O)c1Cl [VI-18, N2-(3-Aminosulfonyl-4-chloro-5-methylphenyl)-N4-(3-chloro-4-trifluoromethoxyphenyl)-5-fluoro-2,4-pyrimidinediamine]
19 | 108 |  | COc1ccc(Nc2nc(Nc3ccc(C(C)C)c(S(N)(=O)=O)c3)ncc2F)cc1Cl [VI-45, N2-(3-Aminosulfonyl-4-iso-propylphenyl)-N4-(3-chloro-4-methoxy-phenyl)-5-fluoro-2,4-pyrimidinediamine]
20 | 69.2 |  | COc1c(C)cc(Nc2ncc(F)c(Nc3ccc(C(C)(C)C)cc3)n2)cc1S(N)(=O)=O [VI-37, N2-(3-Aminosulfonyl-4-methoxy-5-methylphenyl)-N4-(4-tert-butylphenyl)-5-fluoro-2,4-pyrimidinediamine]
21 | 149 |  | Cc1ccc2cc(Nc3nc(Nc4ccc(C)c(S(N)(=O)=O)c4)ncc3F)ccc2n1 [VII-71, N2-(3-Aminosulfonyl-4-methylphenyl)-5-fluoro-N4-(2-methylquinolin-6-yl)-2,4-pyrimidinediamine]
22 | 132 |  | Cc1ccc(Nc2ncc(F)c(Nc3ccc(CCCF)cc3)n2)cc1S(N)(=O)=O [VI-84, N2-(3-Aminosulfonyl-4-methylphenyl)-5-fluoro-N4-[4-(3-fluoropropyl)phenyl]-2,4-pyrimidinediamine]
23 | 216 |  | NS(=O)(=O)c1ccc(Nc2ncc(F)c(Nc3ccc(CCCCO)cc3)n2)cc1 [VI-88, N2-(4-Aminosulfonylphenyl)-5-fluoro-N4-[4-(4-hydroxybutyl)phenyl]-2,4-pyrimidinediamine]
24 | 168 |  | Cc1ccc(Nc2ncc(F)c(Nc3ccc4oc(C#N)cc4c3)n2)cc1S(N)(=O)=O [VII-53, N2-(3-Aminosulfonyl-4-methylphenyl)-N4-(2-cyanobenzofuran-5-yl)-5-fluoro-2,4-pyrimidinediamine]
25 | 76 |  | C#CCOc1ccc(Nc2nc(Nc3ccc(C)c(S(N)(=O)=O)c3)ncc2F)cc1Cl [VI-59, N2-(3-Aminosulfonyl-4-methylphenyl)-N4-[3-chloro-4-(prop-2-ynyloxy)phenyl]-5-fluoro-2,4-pyrimidinediamine]

Source: US11827628B2, “Compositions and methods for inhibition of the JAK pathway” (Rigel Pharmaceuticals, Inc., priority 2005, dated 2023)
